Data: ChEMBL document CHEMBL5500364, “Design, synthesis, and biological evaluation of some 2-(3-oxo-5,6-diphenyl-1,2,4-triazin-2(3H)-yl)-N-phenylacetamide hybrids as MTDLs for Alzheimer's disease therapy” (Eur J Med Chem, 2024)
Calls of active or inactive are those of the source. The calls are words filed in the database; no cut-off is given here.

Experiments:
[1] = Cmax in male Wistar rat at 10 mg/kg, po measured after 72 hrs by HPLC analysis; type: ADME, organism-based; conditions: in vivo
[2] = test system: Rattus norvegicus; assay: (§1) Reversal of amyloid beta (1 to 42 residues) induced cognitive impairment in Wistar rat assessed as reduction in neural dispersion at DG region in hippocampus at 2.5 to 10 mg/kg, po pretreated with amyloid beta for 7 days followed by compound administration for 9 days and measured after 5 days by Nissl's staining based analysis; type: functional, organism-based; conditions: dose 2.5-10 mg/kg, time 14.0 day
[3] = test system: Hippocampus; assay: Reversal of scopolamine-induced oxidative stress in male Wistar rat brain hippocampus assessed as increase in SOD level at 2.5 to 10 mg/kg, po preadministered with compound for 30 mins starting from 7 th day trail followed by scopolamine administration and measured after 5 mins […]; type: functional, organism-based; conditions: dose 2.5-10 mg/kg, time 35.0 min
[4] = Acute toxicity in Wistar rat assessed as effect on vacuole appearance in liver at 500 to 1000 mg/kg, po administered for 14 days by histopathological analysis; type: organism-based; conditions: in vivo, 336 h, dose 500-1000 mg/kg, time 14 day
[5] = Acute toxicity in Wistar rat assessed as maximum tolerated dose administered orally for 14 days; conditions: in vivo, route po, time 14 day
[6] = Permeability of compound in PBS at pH 7.4 incubated for 18 hrs by PAMPA-BBB assay
[7] = test system: Rattus norvegicus; assay: (§2) Reversal of amyloid beta (1 to 42 residues) induced cognitive impairment in Wistar rat assessed as decrease in amyloid level in DG region of hippocampus at 10 mg/kg, po pretreated with amyloid beta for 7 days followed by compound administration for 9 days and measured after 5 days by immuno histochemical analysis; type: functional, organism-based; conditions: time 14.0 day
[8] = target: Amyloid-beta precursor protein (Homo sapiens) (UniProt P05067); assay: Inhibition of amyloid beta (1 to 42) (unknown origin) self aggregation ar 5 to 20 uM incubated for 48 hrs by Thioflavin T fluorescence assay relative to control; conditions: dose 5-20 µM
Chain of Amyloid-beta precursor protein (Homo sapiens) (P05067 whole entry, the tested form may be a part): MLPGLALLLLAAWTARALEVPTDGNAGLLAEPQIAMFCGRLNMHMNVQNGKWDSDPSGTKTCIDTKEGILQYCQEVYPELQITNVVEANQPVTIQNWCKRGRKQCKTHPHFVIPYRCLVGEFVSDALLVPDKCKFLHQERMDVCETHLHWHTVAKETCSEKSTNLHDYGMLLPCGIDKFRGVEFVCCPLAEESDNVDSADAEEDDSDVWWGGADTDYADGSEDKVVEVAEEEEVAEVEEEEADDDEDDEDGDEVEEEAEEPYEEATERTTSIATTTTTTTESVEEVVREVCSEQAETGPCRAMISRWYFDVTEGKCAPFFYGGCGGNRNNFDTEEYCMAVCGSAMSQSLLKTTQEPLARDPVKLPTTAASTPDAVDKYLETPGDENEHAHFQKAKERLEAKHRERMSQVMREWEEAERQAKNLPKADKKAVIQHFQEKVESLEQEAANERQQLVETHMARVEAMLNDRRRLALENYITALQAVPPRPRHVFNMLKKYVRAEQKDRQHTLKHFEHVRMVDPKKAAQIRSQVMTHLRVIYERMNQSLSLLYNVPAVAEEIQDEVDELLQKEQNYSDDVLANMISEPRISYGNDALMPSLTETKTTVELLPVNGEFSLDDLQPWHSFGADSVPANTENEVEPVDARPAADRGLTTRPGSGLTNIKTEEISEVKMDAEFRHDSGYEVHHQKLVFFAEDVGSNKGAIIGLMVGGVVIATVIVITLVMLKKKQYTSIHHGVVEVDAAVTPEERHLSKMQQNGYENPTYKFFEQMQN

[9] = test system: Rattus norvegicus; assay: Reversal of amyloid beta (1 to 42 residues) induced cognitive impairment in Wistar rat assessed as increase in platform crossings at 10 mg/kg, po pretreated with amyloid beta for 7 days followed by compound administration for 9 days and measured after 1 days by Morris water maze test; type: functional, organism-based; conditions: time 10.0 day
[10] = test system: Hippocampus; assay: Reversal of scopolamine-induced oxidative stress in male Wistar rat brain hippocampus assessed as increase in GSH level preadministered orally with compound for 30 mins starting from 7 th day trail followed by scopolamine administration and measured after 5 mins; type: functional, tissue-based; conditions: dose 2.5-10 mg/kg, route po, time 35.0 min
[11] = test system: Drosophila; assay: Neuroprotective activity against ey-GAL4>UAS-amyloid beta (1 to 42) induced cellular toxicity in Oregon R-positive Drosophila model assessed as rescue of ommatidial patterns in eye at 10 to 20 uM by scanning electron microscopic imaging analysis; type: functional, organism-based; conditions: dose 10-20 µM
[12] = test system: Rattus norvegicus; assay: Reduction in AChE level in scopolamine-induced male Wistar rat brain hippocampus preadministered with compound orally for 30 mins starting from 7 th day trail followed by scopolamine administration and measured after 5 mins by Ellman's method; type: functional, tissue-based; conditions: dose 2.5-10 mg/kg, route po, time 35.0 min
[13] = test system: Rattus norvegicus; assay: as §2, with “CA1” for “DG”; type: functional, organism-based; conditions: time 14.0 day
[14] = Acute toxicity in Wistar rat assessed as effect on lung appearance at 500 to 1000 mg/kg, po administered for 14 days by histopathological analysis; type: organism-based; conditions: in vivo, 336 h, dose 500-1000 mg/kg, time 14 day
[15] = Toxicity in wildtype Oregon R-positive Drosophila assessed as reduction in eclosion at 100 to 200 uM pretreated for 5 days and measured for 15 days; conditions: 480 h, dose 100-200 µM, time 20 day
[16] = test system: SH-SY5Y; assay: Neuroprotective activity against amyloid-beta(1 to 42) induced oxidative stress in differentiated human SH-SY5Y cells assessed as increase in cell viability at 40 uM preincubated with amyloid-beta (1 to 42 ) for 24 hrs followed by compound addition and measured after 72 hrs by MTT assay relative to control; type: functional
[17] = target: Amyloid-beta precursor protein (Homo sapiens) (UniProt P05067); assay: Inhibition of amyloid beta (1 to 42) (unknown origin) aggregation assessed as reduction in amyloid-beta aggregates at 50 uM incubated for 48 hrs by TEM analysis
[18] = target: Amyloid-beta precursor protein (Homo sapiens) (UniProt P05067); assay: Inhibition of human AchE-induced amyloid beta (1 to 42) (unknown origin) aggregation at 5 to 20 uM incubated for 48 hrs by Thioflavin T fluorescence assay relative to control; conditions: dose 5-20 µM
[19] = test system: Rattus norvegicus; assay: Reversal of amyloid beta (1 to 42 residues) induced cognitive impairment in Wistar rat assessed as decrease in APP protein level at 10 mg/kg, po pretreated with amyloid beta for 7 days followed by compound administration for 9 days and measured after 5 days by Western blot analysis; type: functional, organism-based; conditions: time 14.0 day
[20] = test system: Rattus norvegicus; assay: Antialzheimer activity against scopolamine-induced amnesia in male Wistar rat model assessed as increase in total arm enteries at 2.5 to 10 mg/kg, po preadministered with compound for 30 mins starting from 7 th day trail followed by scopolamine administration and measured after 5 mins by Y maze test; type: functional, organism-based; conditions: dose 2.5-10 mg/kg, time 35.0 min
[21] = Acute toxicity in Wistar rat assessed as body weight loss at 500 to 1000 mg/kg, po measured for 2 to 3 days relative to control; type: organism-based; conditions: in vivo, dose lower 500 mg/kg, time lower 2 day, dose upper 1000 mg/kg, time upper 3 day
[22] = test system: Hippocampus; assay: Reversal of scopolamine-induced oxidative stress in male Wistar rat brain hippocampus assessed as increase in catalase level preadministered orally with compound for 30 mins starting from 7 th day trail followed by scopolamine administration and measured after 5 mins by spectrophotometric analysis; type: functional, tissue-based; conditions: dose 2.5-10 mg/kg, route po, time 35.0 min
[23] = test system: Rattus norvegicus; assay: as §2, with “in BACE-1” for “in amyloid”, “in CA1” for “in DG”; type: functional, organism-based; conditions: time 14.0 day
[24] = Toxicity in wildtype Oregon R-positive Drosophila assessed as cell viability in gut at 50 uM by MTT assay relative to control; type: tissue-based; conditions: read-out: Activity
[25] = Neurotoxicity in human SH-SY5Y cells assessed as reduction in cell population at 80 uM incubated for 24 hrs by MTT assay
[26] = Tmax in male Wistar rat at 10 mg/kg, po measured after 72 hrs by HPLC analysis; type: ADME, organism-based; conditions: in vivo
[27] = target: Amyloid-beta precursor protein (Homo sapiens) (UniProt P05067); assay: Inhibition of amyloid beta (1 to 42) (unknown origin) aggregation assessed as reduction in size of amyloid-beta aggregates measured within 48 hrs by SEM imaging analysis
[28] = test system: Rattus norvegicus; assay: as §1, with “focal gliosis” for “neural dispersion at DG region”, “cerebral cortex” for “hippocampus”; type: functional, organism-based; conditions: dose 2.5-10 mg/kg, time 14.0 day
[29] = Acute toxicity in Wistar rat assessed as effect on kidney appearance at 500 to 1000 mg/kg, po administered for 14 days by histopathological analysis; type: organism-based; conditions: in vivo, 336 h, dose 500-1000 mg/kg, time 14 day
[30] = Toxicity in wildtype Oregon R-positive Drosophila assessed as eclosion at 10 uM pretreated for 5 days and measured for 15 days relative to control; conditions: 480 h, time 20 day
[31] = MRT in male Wistar rat at 10 mg/kg, po measured after 72 hrs by HPLC analysis; type: ADME, organism-based; conditions: in vivo
[32] = Toxicity in wildtype Oregon R-positive Drosophila assessed as cell viability in gut at 5 uM by MTT assay relative to control; type: tissue-based; conditions: read-out: Activity
[33] = test system: Rattus norvegicus; assay: Reversal of amyloid beta (1 to 42 residues) induced cognitive impairment in Wistar rat assessed as reduction in escape latency time at 10 mg/kg, po pretreated with amyloid beta for 7 days followed by compound administration for 9 days and measured after 5 days by Morris water maze test; type: functional, organism-based; conditions: time 14.0 day

COc1cc(NC(=O)Cn2nc(-c3ccccc3)c(-c3ccccc3)nc2=O)cc(OC)c1
Cmax [1]: 355 ng/mL
Activity [2]: Active
Activity [3]: Active
Activity [4]: Non-Toxic
MTD at 336 h [5]: 1000 mg/kg
Papp at 18 h [6]: 5.64 ×10⁻⁶ cm/s
Activity [7]: Active
inhibition [8]: 23.6%
Activity [9]: inactive
Activity [10]: Dose-Dependent Effect
Activity [11]: Active
Activity [12]: Dose-Dependent Effect
Activity [13]: Active
Activity [14]: Non-Toxic
Activity [15]: Toxic
Activity [16]: 82%
inhibition [17]: Active
inhibition [18]: 41.3%
Activity [19]: Active
Activity [20]: Active
Activity [21]: 7%
Activity [22]: Dose-Dependent Effect
Activity [23]: Active
viability at 50 µM [24]: 38%
Activity [25]: Non-Toxic
Tmax [26]: 9 h
inhibition [27]: Active
Activity [28]: Active
Activity [29]: Non-Toxic
Activity [30]: 85%
MRT [31]: 32 h
viability at 5 µM [32]: 97%
Activity [33]: Active
